Among the test systems are OVCAR-4 ovarian; HCC-2998 colon; MDA-MB-231 breast; KM12 colon; HCT-15 colon; DU-145 prostate; NCI-H226 lung; NCI-H460 lung; MOLT-4 leukemia; CCRF-CEM leukemia.
What all share (test): growth of human tumour cells (NCI), 48 h

We go through seven molecules from PubChem BioAssay (NCI).

Where “and” joins values, the source holds several entries; their conditions need not be identical. Equal values may be shown once.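 96-well plates; 48 h exposure; 5 concentrations. Endpoints by linear interpolation between flanking doses. Not reached: highest tested concentration assigned. The concentration for 50% growth inhibition is given as GI50. Definition used: TGI = concentration required for complete inhibition of growth.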

Regarding `O=CN1N=C(c2cccc(Nc3ccnc4cc(Cl)ccc34)c2)CC1c1ccccc1` (stereo not drawn), the GI50 was 0.536 µM with OVCAR-4 ovarian; 1.03 µM in the assay on HCC-2998 colon; 0.858 µM in the assay on MDA-MB-231 breast; 0.315 µM with KM12 colon; 0.511 µM in the assay on HCT-15 colon; 0.44 µM in the assay with DU-145 prostate. For the same molecule, the GI50 in the assay with NCI-H226 lung was 3.32 µM; with NCI-H460 lung it was 0.393 µM; in the assay with MOLT-4 leukemia, 0.383 µM; in the assay on CCRF-CEM leukemia it was 0.31 µM. The TGI with OVCAR-4 ovarian is more than 100 µM; in the assay on HCC-2998 colon it was 5.57 µM; in the assay on MDA-MB-231 breast, more than 21.3 µM; in the assay with KM12 colon, 12.7 µM; with HCT-15 colon, more than 100 µM; in the assay with DU-145 prostate, 16.8 µM. Also, the TGI in the assay on NCI-H226 lung is more than 55.7 µM; with NCI-H460 lung, 8.4 µM; with MOLT-4 leukemia, 2.77 µM; in the assay on CCRF-CEM leukemia it was 1.48 µM.

`CCCCCCCCCCCCCCCCOP(=O)([O-])OCC[N+](C)(C)C`: the GI50 in the assay with OVCAR-4 ovarian is 2.88 µM; in the assay with HCC-2998 colon, 1.06 µM; in the assay with MDA-MB-231 breast, 1.19 µM; in the assay with KM12 colon it was 0.341 µM; in the assay with HCT-15 colon, 0.842 µM; with DU-145 prostate it was 4.01 µM. Besides, the GI50 in the assay with NCI-H226 lung was 1.59 µM; with NCI-H460 lung, 0.518 µM; in the assay on MOLT-4 leukemia, 0.868 µM; in the assay on CCRF-CEM leukemia, 1.09 µM and 9.72 µM. Besides, the TGI with OVCAR-4 ovarian is 12.6 µM and 38.6 µM; with KM12 colon, 1.78 µM and 10.3 µM; in the assay on DU-145 prostate, 14.7 µM and 39.9 µM.

In the case of `Clc1ccc2nc(CI)c(CI)nc2c1`, the GI50 with OVCAR-4 ovarian is 2.45 µM; with HCC-2998 colon, 15.7 µM; with MDA-MB-231 breast it was 2.67 µM; in the assay on KM12 colon, 6.07 µM; in the assay on HCT-15 colon, 3.46 µM; in the assay with DU-145 prostate it was 10.1 µM. Further, the GI50 with NCI-H226 lung was 10.4 µM; in the assay with NCI-H460 lung, 10.1 µM; with MOLT-4 leukemia, 1.89 µM; in the assay with CCRF-CEM leukemia it was 2.3 µM. Further, the TGI in the assay with OVCAR-4 ovarian was found to be 6.22 µM; with HCC-2998 colon it was 30.3 µM; in the assay with MDA-MB-231 breast, 7.58 µM; in the assay with KM12 colon it was 17.6 µM; with HCT-15 colon it was 12.1 µM; in the assay with DU-145 prostate, 23.5 µM. For the same molecule, the TGI is more than 38 µM in the assay on NCI-H226 lung, 27.1 µM in the assay on NCI-H460 lung, 9.08 µM in the assay on MOLT-4 leukemia and 15.3 µM in the assay with CCRF-CEM leukemia.

As for `Cn1nc(C(F)(F)F)c(-c2cc(C(F)(F)F)cc(C(F)(F)F)c2)c1-c1ccc(OCc2ccc(Cl)cc2)cc1O`, the GI50 in the assay on OVCAR-4 ovarian is 2.68 µM; with HCC-2998 colon, 2.77 µM; in the assay on MDA-MB-231 breast, 2.15 µM; in the assay on KM12 colon it was 2.64 µM; in the assay with HCT-15 colon, 2.14 µM; in the assay on DU-145 prostate it was 3.9 µM. Also, the GI50 in the assay with NCI-H226 lung is 2.1 µM; in the assay with NCI-H460 lung it was 2.16 µM; in the assay with MOLT-4 leukemia it was 2.61 µM; in the assay with CCRF-CEM leukemia, 2.26 µM. Besides, the TGI in the assay on OVCAR-4 ovarian came out at 13.3 µM; in the assay with HCC-2998 colon, 12.4 µM; in the assay on MDA-MB-231 breast it was 5.69 µM; in the assay with KM12 colon, 10.7 µM; in the assay on HCT-15 colon, 10.7 µM; with DU-145 prostate it was 14.8 µM. Further, the TGI was 5.67 µM in the assay on NCI-H226 lung, 5.5 µM in the assay with NCI-H460 lung, 11 µM with MOLT-4 leukemia and 14.9 µM with CCRF-CEM leukemia.

As for `COc1cc(OC)c(OC)cc1/C=C/c1cnnc2ccccc12`, the TGI in the assay on OVCAR-4 ovarian, with HCC-2998 colon, in the assay with MDA-MB-231 breast, in the assay with KM12 colon, in the assay with HCT-15 colon and in the assay with DU-145 prostate was more than 10 µM throughout. Moreover, the TGI in the assay with NCI-H226 lung, in the assay with NCI-H460 lung, in the assay on MOLT-4 leukemia and with CCRF-CEM leukemia was more than 10 µM in each case.

Consider `N#C/C(=N\Nc1ccccc1)C(=O)Nc1cc(-c2ccccc2)nn1-c1ccccc1`, for which the GI50 in the assay with OVCAR-4 ovarian is 2.01 µM; in the assay on HCC-2998 colon, 3.81 µM; in the assay on MDA-MB-231 breast, 3.34 µM; in the assay on KM12 colon, 2.97 µM; in the assay with HCT-15 colon it was 2.98 µM; in the assay on DU-145 prostate, 4.08 µM. Also, the GI50 in the assay on NCI-H226 lung is 2.8 µM; in the assay with NCI-H460 lung, 2.72 µM; with MOLT-4 leukemia, 3.75 µM; in the assay on CCRF-CEM leukemia, 2.5 µM. For the same molecule, the TGI was 8.95 µM in the assay on OVCAR-4 ovarian; more than 100 µM in the assay on HCC-2998 colon; more than 100 µM in the assay on MDA-MB-231 breast; more than 100 µM in the assay with KM12 colon; more than 100 µM with HCT-15 colon; more than 100 µM in the assay with DU-145 prostate. For the same molecule, the TGI is more than 100 µM in the assay on NCI-H226 lung, 22.1 µM in the assay on NCI-H460 lung, more than 100 µM in the assay with MOLT-4 leukemia and more than 100 µM in the assay on CCRF-CEM leukemia.

As to `CC(C)=CC(=O)N[C@H]1CC[C@]2(C)C3CC[C@]4(C)C(C(C)N(C)C)=CCC4C3CCC2[C@H]1O` (stereo partly drawn), the GI50 in the assay on OVCAR-4 ovarian is 5.88 µM; in the assay on HCC-2998 colon, 5.22 µM; in the assay on MDA-MB-231 breast, 3.34 µM; in the assay on KM12 colon, 3.48 µM; with HCT-15 colon, 1.55 µM; with DU-145 prostate, 8.68 µM. The GI50 in the assay on NCI-H226 lung was 8.49 µM; in the assay with NCI-H460 lung, 1.87 µM; in the assay on MOLT-4 leukemia, 2.81 µM; in the assay with CCRF-CEM leukemia, 2.92 µM. The TGI in the assay with OVCAR-4 ovarian was 20.8 µM; in the assay on HCC-2998 colon, 17.8 µM; in the assay on MDA-MB-231 breast, 9.79 µM; in the assay with KM12 colon, 14.2 µM; in the assay on HCT-15 colon, 4.2 µM; with DU-145 prostate, 21.4 µM. In addition, the TGI in the assay on NCI-H226 lung turned out to be 25.7 µM; in the assay on NCI-H460 lung, 3.75 µM; in the assay with MOLT-4 leukemia, 11.4 µM; with CCRF-CEM leukemia, 14.3 µM.
